15 molecules from US4355170A, “1-Substituted imidazole derivatives” (Ono Pharmaceutical Co., Ltd., priority 1978, dated 1982) can be followed below.

The IC50 is the concentration needed to halve the response being measured. A lower IC50 goes with inhibition by little substance. Usually LD50 stands for the dose expected to kill half of the subjects tested. High values mean lower toxicity, low ones greater toxicity.

Counter-ions that a name gives are not always drawn.

The target in one data set is T1, thromboxane synthetase from rabbit platelet microsomes (Oryctolagus cuniculus, UniProt G1TAZ9).
T1 construct: thromboxane synthetase from rabbit platelet microsomes; from tissue; host or cells: rabbit platelet microsomes
T1 sequence (G1TAZ9 1-530): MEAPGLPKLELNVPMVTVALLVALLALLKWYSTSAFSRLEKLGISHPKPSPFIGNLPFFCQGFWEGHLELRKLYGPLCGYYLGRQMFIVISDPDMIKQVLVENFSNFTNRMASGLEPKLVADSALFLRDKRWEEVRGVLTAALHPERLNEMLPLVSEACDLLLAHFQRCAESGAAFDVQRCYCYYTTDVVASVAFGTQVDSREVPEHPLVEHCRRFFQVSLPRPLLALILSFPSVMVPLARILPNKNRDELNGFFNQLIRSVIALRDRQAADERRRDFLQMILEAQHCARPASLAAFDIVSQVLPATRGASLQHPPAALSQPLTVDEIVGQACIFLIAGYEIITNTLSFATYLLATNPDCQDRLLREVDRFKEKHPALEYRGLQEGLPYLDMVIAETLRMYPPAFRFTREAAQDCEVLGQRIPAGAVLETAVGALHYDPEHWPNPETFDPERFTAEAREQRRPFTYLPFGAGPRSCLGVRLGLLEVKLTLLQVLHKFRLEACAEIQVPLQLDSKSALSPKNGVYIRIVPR
Description: inhibition of thromboxane synthetase from rabbit platelet microsomes (conversion of prostaglandin H2 into thromboxane B2). It is filed as biochemical.
Details: not given
`O=C(O)/C=C\CCCCCn1ccnc1` [(Z)-1-(7-carboxy-6-heptenyl)imidazole hydrochloride] gave an IC50 of 16 nM. That is a double-digit nanomolar value.
Still for that read-out and setting: then `CCOC(=O)C(C)(C)CCCCCCn1ccnc1` [1-(7-ethoxycarbonyl-7-methyloctyl)imidazole], with 1000 nM.
In the case of `CC(CCCCCCn1ccnc1)C(=O)O.Cl` (racemic) [1-[(7RS)-7-carboxyoctyl]imidazole hydrochloride], the IC50 amounted to 30 nM.
The molecule `CCOC(=O)C(C)CCCCCCn1ccnc1` (racemic) [1-[(7RS)-7-ethoxycarbonyloctyl]imidazole] yielded an IC50 of 200 nM.
Take `O=C(O)/C=C/CCCCCn1ccnc1` [(E)-1-(7-carboxy-6-heptenyl)imidazole hydrochloride]: the IC50 is 70 nM. Compared with the last molecule, the IC50 is about 2.9-fold lower.
In turn, `CCOC(=O)/C=C/CCCCCn1ccnc1` [(E)-1-(7-ethoxycarbonyl-6-heptenyl)imidazole] showed an IC50 of 2800 nM.
The same measure, in the same setting: then `CC(C)(CCCCn1ccnc1)CCC(=O)O` [1-(7-carboxy-5,5-dimethylheptyl)imidazole hydrochloride], with 71 nM; and `CC(C)(CCCCCCC(=O)O)n1ccnc1` [1-(7-carboxy-1,1-dimethylheptyl)imidazole hydrochloride], with 90 nM.
On the same count and under the same terms, then `CCCCC(CCCn1ccnc1)C(=O)OCC` (racemic) [1-[(4RS)-4-ethoxycarbonyloctyl]imidazole], with 130 nM; and `CC(CCCCCn1ccnc1)CC(=O)O` (racemic) [1-[(6RS)-7-carboxy-6-methylheptyl]imidazole hydrochloride], with 48 nM; and `O=C(O)CCCC/C=C\Cn1ccnc1` [(Z)-1-(7-carboxy-2-heptenyl)imidazole hydrochloride], with 56 nM.

A further data set deals with arachidonic acid-induced sudden deaths. In words: inhibitory effect on arachidonic acid-induced sudden deaths of rabbits. To be noted: oral administration, 100 mg/kg animal body weight. It is filed as in vivo.
`CC(CCCCCCn1ccnc1)C(=O)O.Cl` (racemic) [1-[(7RS)-7-carboxyoctyl]imidazole hydrochloride]: the “inhibitory effect on arachidonic acid-induced sudden deaths of rabbits” value was “inhibitory effect”.
Same read-out and setting: then `Cl.O=C(O)CCCCC#CCn1ccnc1` [1-(7-carboxy-2-heptynyl)imidazole hydrochloride], with “inhibitory effect”.
The same measure, in the same setting: then `CC(C)(CCCCCCn1ccnc1)C(=O)O.Cl` [1-(7-carboxy-7-methyloctyl)imidazole hydrochloride], with “inhibitory effect”.

The next data set concerns thromboxane synthetase. In words: inhibitory action for thromboxane synthetase (prior art compounds). The format is biochemical. To be noted: not completely satisfactory as a practical medication. An excerpt: However, since their inhibitory action for thromboxane synthetase is weak, these compounds are hardly applicable as practically effective medicines.
On the other hand, N-(6-methoxycarbonylhexyl)imidazole has already been synthesized by P. Matthias et al, and publicly known [Monatsch Chem., 108(5), 1059(1977)].
On to `COC(=O)CCCCCCn1ccnc1` [N-(6-methoxycarbonylhexyl)imidazole], for which the “inhibitory effect on thromboxane synthetase compared with imidazole or 1-methylimidazole” value is reported as “stronger inhibitory effect”.

Tested on in a further data set: not listed separately
Description: acute toxicity test, LD50 in mice. To be noted: mouse, in vivo, iv.
Turning to `CC(CCCCCn1ccnc1)C(C)C(=O)O.Cl` (stereo not shown) [1-(7-carboxy-6-methyloctyl)imidazole hydrochloride], the LD50 is 330 mg/kg.
